| melting point | SMILES |
| --- | --- |
| 135 to 136 °C | CC(=O)c1c(Cl)nc2n(c1=O)CCS2 |
| 155 to 163 °C | O=C(O)c1cc2cc(OCCNC[C@@H](O)c3csc(C(F)(F)F)n3)ccc2o1 |
| 94 to 96 °C | COc1ccc(C(O)Cc2ccccn2)cc1OC1CCCC1 (stereo unspecified) |
| 56 to 57 °C | N[C@@H](COc1cccc(Cl)n1)c1ccccc1 |
| 249 to 250 °C | CC(C)CCN1C(=O)C(NC(=O)Nc2ccccc2)C(=O)Nc2ccccc21 (stereo unspecified) |
| 186 °C | CCCC(=O)CC1NC(=O)c2ccsc2-n2cccc21 (stereo unspecified) |
| 62 to 64 °C | CCOC(=O)C1=Cc2cc(Cl)ccc2OC1C(F)(F)F (stereo unspecified) |
| 70 to 72 °C | CC(C)(C)[Si](OCC[C@H](O)CO)(c1ccccc1)c1ccccc1 |
| 80 to 82 °C | COC(CN(C)CC1CSC2=C(O1)c1ccccc1C(=O)C2=O)OC (stereo unspecified) |
| 45 °C | CO[C@@H]1C=C2C=C3C(=C(C)C(=O)N3Cc3ccccc3)C[C@]2(C)[C@@H](C)[C@H]1O |
| 268 to 271 °C | Cc1[nH]cnc1CN1CCC(N)=CC1=O |
| 131 to 133 °C | N#CCc1cccc2oc(Br)c(-c3ccccc3)c12 |
| 116 to 117 °C | COc1ccc(-c2cc(=O)n(Cc3ccccn3)nc2-c2ccc(OC)cc2)cc1 |
| 114 °C | O=C(c1cccnc1)c1cc(-c2ccc(Cl)cc2)c(N2CCOCC2)s1 |
| 152 to 154 °C | O=C(c1ccc(Cl)cc1)c1cccc2c1CCCC2C(=O)O (stereo unspecified) |
| 105 to 106 °C | COc1ccccc1SC(CCc1ccc(Cl)cc1)Cn1ccnc1 (stereo unspecified) |
| 143 to 145 °C | OC(COc1ccccc1)CN1CCN(c2nc3nccc(-c4ccncc4)n3n2)CC1 (stereo unspecified) |
| 311 to 312 °C | Cc1c(C(=O)O)sc2c(Br)cccc12 |
| 135 to 137 °C | COc1ccc(-c2c(C(=O)CC(C)C)c(C)nc3cc(OC)c(OC)cc23)cc1OC |
| > 60 °C | CCCCCN(Cc1ccc(-c2ccccc2S(=O)(=O)NC(=O)c2ccccc2Cl)cc1)C(=O)N(Cc1ccccc1)c1ccccc1 |

| melting point | SMILES |
| --- | --- |
| 72 to 76 °C | CCCCCNC(=S)CC(=O)O |
| 34 to 36 °C | CC(=C1SCCCS1)c1cccnc1 |
| 62 to 63 °C | FC(F)(F)Oc1ccc(-c2ccc3c(ccn3Cc3ccccc3)c2)cc1 |
| > 250 °C | O=c1[nH]c2ccccc2c(-c2ccccc2)c1-c1csc(-c2ccncc2)n1 |
| 166 to 169 °C | OC(=S)CCCCCCn1c(-c2ccccc2)nc(-c2ccccc2)c1-c1ccccc1 |
| 120 to 127 °C | OCCc1cn2ccccc2n1 |
| 158 to 159 °C | COc1cc2c(CCNC(C)=O)c[nH]c2cc1F |
| 113 to 115 °C | COc1ccc2c(c1)C(O)CC21CCN(CCCC(=O)c2ccc(F)cc2)C1 (stereo unspecified) |
| 128 to 130 °C | COC(=O)C(C)(C)OCC#Cc1cc(C(F)(F)F)ccc1NS(=O)(=O)c1cc(C)cc(C)c1 |
| 85 to 88 °C | CCN(CC)c1ncc(C(=O)O)c2[nH]nc(C)c12 |
| 174 to 176 °C | Cc1nc2cnccc2n1-c1ccc2c(c1)CC(C#N)C2 (stereo unspecified) |
| 180 to 182 °C | Cc1oc2ccccc2c1C(=O)NCc1ccc2c(Br)c(OCC#N)ccc2c1 |
| 74 to 76 °C | O=C(NCCSCc1cccc(Br)c1)c1c(Cl)cccc1Cl |
| 202 to 203 °C | CC1(C)Oc2cc(C#N)c(C#N)cc2O1 |
| 101 °C | COC1=CC(O)(SC(=O)N(C)C)C([N+](=O)[O-])C=C1 (stereo unspecified) |
| 116 to 119 °C | CC1(O)CC(=O)OC(CCc2ccc(Cl)cc2)C1Br (stereo unspecified) |
| 218 to 220 °C | O=S1(=O)N=CN(C2CCCC2)c2ccc(Cl)cc21 |
| 59 to 61 °C | CCCCCCCCc1sc(NC(=O)c2cc3ccccc3n2CCC(=O)OCC)nc1-c1cc(OC)c(Cl)cc1OC |
| 298 to 299 °C | CCCn1c(=O)n2c(C)nnc2c2[nH]cnc21 |

| SMILES | melting point |
| --- | --- |
| CCN(CC)C(=O)C1CN2CCC1C(NCc1ccccc1OC)C2C(c1ccccc1)c1ccccc1 (stereo unspecified) | 121 to 123 °C |
| COc1cccc(C(C#N)=NOS(C)(=O)=O)c1 | 105 to 107 °C |

Reference: a melting point compilation (Tetko et al.; mined from patent text by program, amines drawn as free bases though some values may be those of a salt)
